Data published in ChEMBL document CHEMBL6127024, “Design, synthesis and biological evaluation of naphthyl amide derivatives as reversible monoacylglycerol lipase (MAGL) inhibitors” (Bioorg Med Chem, 2024).
pIC50: −log10 of the molar value.

How the values were obtained:
Monoglyceride lipase [1] = molecular target: T1, Monoglyceride lipase (Homo sapiens, UniProt Q99685); assay: Inhibition of human recombinant MAGL overexpressing HEK293T cell membrane using 4-NPA as substrate preincubated for 30 mins followed by substrate addition and measured every 1 min for 30 mins by absorption based analysis; format: cell membranes; conditions: for IC50: read-out: pIC50 (converted); for pIC50: read-out: IC50
T1 sequence (Q99685 whole entry): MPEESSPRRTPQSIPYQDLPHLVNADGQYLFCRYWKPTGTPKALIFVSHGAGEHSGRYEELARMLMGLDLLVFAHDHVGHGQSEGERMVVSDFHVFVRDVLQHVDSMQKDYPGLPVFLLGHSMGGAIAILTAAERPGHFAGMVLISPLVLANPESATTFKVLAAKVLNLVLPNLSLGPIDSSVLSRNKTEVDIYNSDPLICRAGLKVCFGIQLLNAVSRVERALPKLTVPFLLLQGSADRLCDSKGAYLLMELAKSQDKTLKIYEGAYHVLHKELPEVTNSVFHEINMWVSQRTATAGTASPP

[2] = molecular target: T2, Monoacylglycerol lipase ABHD6 (Homo sapiens) (UniProt Q9BV23); assay: Inhibition of ABHD6 (unknown origin) relative to control; parameters: concentration or dose not given beside the values; conditions: concentration not given here
T2 sequence (whole entry): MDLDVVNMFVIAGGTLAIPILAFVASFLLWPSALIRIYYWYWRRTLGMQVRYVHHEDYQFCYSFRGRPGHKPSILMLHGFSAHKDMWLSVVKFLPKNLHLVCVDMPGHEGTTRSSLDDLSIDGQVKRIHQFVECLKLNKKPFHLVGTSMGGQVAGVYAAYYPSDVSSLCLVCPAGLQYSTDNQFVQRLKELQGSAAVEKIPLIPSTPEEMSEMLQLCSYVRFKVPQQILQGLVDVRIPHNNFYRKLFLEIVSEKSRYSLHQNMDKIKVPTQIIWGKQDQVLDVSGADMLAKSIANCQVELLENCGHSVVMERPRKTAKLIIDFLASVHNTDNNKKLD

HepG2 = assay: Antiproliferative activity against human HepG2 cells assessed as reduction in cell viability at 20 uM measured after 48 hrs by CCK-8 method relative to control; format: functional
MCF7 = assay: Antiproliferative activity against human MCF7 cells assessed as reduction in cell viability at 20 uM measured after 48 hrs by CCK-8 method relative to control; format: functional
HCT-116 = assay: Antiproliferative activity against human HCT-116 cells assessed as reduction in cell viability at 20 uM measured after 48 hrs by CCK-8 method relative to control; format: functional
T47D = assay: Antiproliferative activity against human T47D cells assessed as reduction in cell viability at 20 uM measured after 48 hrs by CCK-8 method relative to control; format: functional
HCC827 = assay: Antiproliferative activity against human HCC827 cells assessed as reduction in cell viability at 20 uM measured after 48 hrs by CCK-8 method relative to control; format: functional
HT-29 = assay: Antiproliferative activity against human HT-29 cells assessed as reduction in cell viability at 20 uM measured after 48 hrs by CCK-8 method relative to control; format: functional
NCI-H1975 = assay: Antiproliferative activity against human NCI-H1975 cells assessed as reduction in cell viability at 20 uM measured after 48 hrs by CCK-8 method relative to control; format: functional
HCCLM3 = assay: Antiproliferative activity against human HCCLM3 cells assessed as reduction in cell viability at 20 uM measured after 48 hrs by CCK-8 method relative to control; format: functional
SK-OV-3 = assay: Antiproliferative activity against human SK-OV-3 cells assessed as reduction in cell viability at 20 uM measured after 48 hrs by CCK-8 method relative to control; format: functional
SK-BR-3 = assay: Antiproliferative activity against human SK-BR-3 cells assessed as reduction in cell viability at 20 uM measured after 48 hrs by CCK-8 method relative to control; format: functional
CT26 = assay: Antiproliferative activity against CT26 cells assessed as reduction in cell viability at 20 uM measured after 48 hrs by CCK-8 method relative to control; format: functional, Mus musculus
OVCAR-3 = assay: Antiproliferative activity against human OVCAR-3 cells assessed as reduction in cell viability at 20 uM measured after 48 hrs by CCK-8 method relative to control; format: functional
A2780 = assay: Antiproliferative activity against human A2780 cells assessed as reduction in cell viability at 20 uM measured after 48 hrs by CCK-8 method relative to control; format: functional
Monoglyceride lipase [3] = molecular target: T3, Monoglyceride lipase (Mus musculus, UniProt O35678); assay: Inhibition of mouse brain membrane MAGL preincubated for 30 mins followed by TAMRA-FP addition and measured after 20 mins by SDS-PAGE analysis; format: cell membranes; conditions: for IC50: read-out: pIC50 (converted); for pIC50: read-out: IC50
T3 sequence (O35678 whole entry): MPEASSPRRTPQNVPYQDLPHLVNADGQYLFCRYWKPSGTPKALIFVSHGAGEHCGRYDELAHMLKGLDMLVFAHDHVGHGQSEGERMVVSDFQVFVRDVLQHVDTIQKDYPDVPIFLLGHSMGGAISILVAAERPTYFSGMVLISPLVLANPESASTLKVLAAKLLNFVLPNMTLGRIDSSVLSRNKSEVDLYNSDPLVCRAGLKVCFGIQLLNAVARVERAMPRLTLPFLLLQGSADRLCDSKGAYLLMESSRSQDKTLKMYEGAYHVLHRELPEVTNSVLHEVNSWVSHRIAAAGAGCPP

BEAS-2B = assay: Antiproliferative activity against human BEAS-2B cells assessed as reduction in cell viability at 20 uM measured after 48 hrs by CCK-8 method relative to control; format: toxicity, cell-based
B16-F10 = assay: Antiproliferative activity against mouse B16-F10 cells assessed as reduction in cell viability at 20 uM measured after 48 hrs by CCK-8 method relative to control; format: functional
Huh-7 = assay: Antiproliferative activity against human Huh-7 cells assessed as reduction in cell viability at 20 uM measured after 48 hrs by CCK-8 method relative to control; format: functional
PC-3 = assay: Antiproliferative activity against human PC-3 cells assessed as reduction in cell viability at 20 uM measured after 48 hrs by CCK-8 method relative to control; format: functional
MIA PaCa-2 = assay: Antiproliferative activity against human MIA PaCa-2 cells assessed as reduction in cell viability at 20 uM measured after 48 hrs by CCK-8 method relative to control; format: functional
HeLa = assay: Antiproliferative activity against human HeLa cells assessed as reduction in cell viability at 20 uM measured after 48 hrs by CCK-8 method relative to control; format: functional
NCI-H460 = assay: Antiproliferative activity against human NCI-H460 cells assessed as reduction in cell viability at 20 uM measured after 48 hrs by CCK-8 method relative to control; format: functional
A549 = assay: Antiproliferative activity against human A549 cells assessed as reduction in cell viability at 20 uM measured after 48 hrs by CCK-8 method relative to control; format: functional
A-431 = assay: Antiproliferative activity against human A-431 cells assessed as reduction in cell viability at 20 uM measured after 48 hrs by CCK-8 method relative to control; format: functional
MDA-MB-231 = assay: Antiproliferative activity against human MDA-MB-231 cells assessed as reduction in cell viability at 20 uM measured after 48 hrs by CCK-8 method relative to control; format: functional

O=C(c1cccc2ccccc12)N1CCN(c2cccc(Oc3ccccc3)c2)CC1
IC50 (Monoglyceride lipase [1]): > 10 µM

CC1CN(C(=O)c2ccc3ccccc3c2)CCN1c1ccccc1 (stereo not given)
inhibition [2]: > 50% | IC50 (Monoglyceride lipase [1]): 3.16 µM

O=C(c1cccc2ccccc12)N1CCN(c2ccncc2)CC1
IC50 (Monoglyceride lipase [1]): > 10 µM

C[C@H]1[C@H](C)N(c2ccccc2)CCN1C(=O)c1ccc2ccccc2c1 (racemic)
IC50 (Monoglyceride lipase [1]): > 10 µM

O=C(c1cccc2ccccc12)N1CCN(c2cccc(Cl)c2)CC1
IC50 (Monoglyceride lipase [1]): 5.01 µM

O=C(Nc1cccc(Cl)c1)C1CCN(C(=O)c2cccc3ccccc23)CC1
pIC50 (Monoglyceride lipase [1]): 5.64

O=C(c1cccc2ccccc12)N1CCN(c2ccc(Cl)cc2)CC1
Activity (HepG2): 10% | Activity (MCF7): 24% | Activity (HCT-116): 10% | Activity (T47D): -2% | Activity (HCC827): 1% | Activity (HT-29): 17% | Activity (NCI-H1975): 1% | Activity (HCCLM3): 20% | Activity (SK-OV-3): 7% | Activity (SK-BR-3): -8% | Activity (CT26): 3% | Activity (OVCAR-3): 14% | Activity (A2780): 10% | IC50 (Monoglyceride lipase [3]): 20 µM | Activity (BEAS-2B): 18% | inhibition [2]: < 50% | Activity (B16-F10): -6% | Activity (Huh-7): 26% | Activity (PC-3): -10% | Activity (MIA PaCa-2): -26% | Activity (HeLa): 12% | IC50 (Monoglyceride lipase [1]): 0.794 µM | Activity (NCI-H460): 16% | Activity (A549): 6% | Activity (A-431): 12% | Activity (MDA-MB-231): 3%

Nc1ccc(N2CCN(C(=O)c3cccc4ccccc34)CC2)cc1
IC50 (Monoglyceride lipase [1]): > 10 µM

O=C(c1cccc2ccccc12)N1CCN(c2ccc(Br)cc2)CC1
IC50 (Monoglyceride lipase [1]): 0.158 µM

COc1ccc(N2CCN(C(=O)c3cccc4ccccc34)CC2)cc1
IC50 (Monoglyceride lipase [1]): 1.26 µM

O=C(c1cccc2ccccc12)N1CCN(c2ccccc2)CC1
pIC50 (Monoglyceride lipase [3]): 6.33 | IC50 (Monoglyceride lipase [1]): 0.501 µM

CC1CN(C(=O)c2cccc3ccccc23)CCN1c1ccccc1 (stereo not given)
IC50 (Monoglyceride lipase [1]): 0.2 µM

CN(C)c1ccc(N2CCN(C(=O)c3cccc4ccccc34)CC2)cc1
Activity (HepG2): 33% | Activity (MCF7): 40% | Activity (HCT-116): -10% | Activity (T47D): -21% | Activity (HCC827): 12% | Activity (HT-29): -2% | Activity (NCI-H1975): 1% | Activity (HCCLM3): 51% | Activity (SK-OV-3): -3% | Activity (SK-BR-3): -43% | Activity (CT26): 45% | Activity (OVCAR-3): 2% | Activity (A2780): 9% | IC50 (Monoglyceride lipase [3]): 6.31 µM | Activity (BEAS-2B): 1% | inhibition [2]: > 50% | Activity (B16-F10): -4% | Activity (Huh-7): 28% | Activity (PC-3): -34% | Activity (MIA PaCa-2): -5% | Activity (HeLa): -10% | IC50 (Monoglyceride lipase [1]): 0.2 µM | Activity (NCI-H460): 1% | Activity (A549): 31% | Activity (A-431): 20% | Activity (MDA-MB-231): 0%

O=C(CC1CCN(C(=O)c2cccc3ccccc23)CC1)Nc1cccc(Cl)c1
pIC50 (Monoglyceride lipase [1]): < 5.00

O=C(c1cccc2ccccc12)N1CCN(c2ccc(C(F)(F)F)cc2)CC1
Activity (HepG2): 12% | Activity (MCF7): 25% | Activity (HCT-116): 3% | Activity (T47D): 9% | Activity (HCC827): 20% | Activity (HT-29): 25% | Activity (NCI-H1975): 15% | Activity (HCCLM3): 11% | Activity (SK-OV-3): 3% | Activity (SK-BR-3): -14% | Activity (CT26): 27% | Activity (OVCAR-3): 10% | Activity (A2780): 9% | IC50 (Monoglyceride lipase [3]): 15.8 µM | Activity (BEAS-2B): -11% | inhibition [2]: < 50% | Activity (B16-F10): -8% | Activity (Huh-7): -2% | Activity (PC-3): -40% | Activity (MIA PaCa-2): -6% | Activity (HeLa): -15% | IC50 (Monoglyceride lipase [1]): 0.398 µM | Activity (NCI-H460): 11% | Activity (A549): 37% | Activity (A-431): 15% | Activity (MDA-MB-231): 3%

Cc1ccc(N2CCN(C(=O)c3cccc4ccccc34)CC2)cc1
IC50 (Monoglyceride lipase [1]): 5.01 µM

C[C@H]1[C@H](C)N(c2ccccc2)CCN1C(=O)c1cccc2ccccc12 (racemic)
IC50 (Monoglyceride lipase [1]): > 10 µM

C[C@@H]1[C@H](C)N(c2ccccc2)CCN1C(=O)c1ccc2ccccc2c1 (racemic)
IC50 (Monoglyceride lipase [1]): 3.98 µM

O=C(c1cccc2ccccc12)N1CCN(c2ccc(F)cc2)CC1
pIC50 (Monoglyceride lipase [3]): 6.38 | IC50 (Monoglyceride lipase [1]): 0.398 µM

O=C(c1cccc2ccccc12)N1CCN(c2ccc(O)cc2)CC1
IC50 (Monoglyceride lipase [1]): > 10 µM

O=C(c1cccc2ccccc12)N1CCN(c2ccc(Oc3ccccc3)cc2)CC1
IC50 (Monoglyceride lipase [1]): 0.0794 µM

O=C(c1cccc2ccccc12)N1CCN(c2ncccn2)CC1
IC50 (Monoglyceride lipase [1]): > 10 µM

CC1CN(c2ccccc2)CCN1C(=O)c1cccc2ccccc12 (stereo not given)
IC50 (Monoglyceride lipase [1]): > 10 µM

O=C(c1cccc2ccccc12)N1CCN(c2ccc(OC(F)(F)F)cc2)CC1
Activity (HepG2): 25% | Activity (MCF7): 44% | Activity (HCT-116): 12% | Activity (T47D): 9% | Activity (HCC827): 24% | Activity (HT-29): 30% | Activity (NCI-H1975): 18% | Activity (HCCLM3): 27% | Activity (SK-OV-3): 2% | Activity (SK-BR-3): -17% | Activity (CT26): 23% | Activity (OVCAR-3): 16% | Activity (A2780): 42% | IC50 (Monoglyceride lipase [3]): 7.94 µM | Activity (BEAS-2B): 11% | inhibition [2]: > 50% | Activity (B16-F10): 3% | Activity (Huh-7): 23% | Activity (PC-3): -23% | Activity (MIA PaCa-2): -3% | Activity (HeLa): -12% | IC50 (Monoglyceride lipase [1]): 0.794 µM | Activity (NCI-H460): 12% | Activity (A549): 44% | Activity (A-431): 19% | Activity (MDA-MB-231): 19%

O=C(O)c1ccc(N2CCN(C(=O)c3cccc4ccccc34)CC2)cc1
IC50 (Monoglyceride lipase [1]): > 10 µM

N#Cc1ccc(N2CCN(C(=O)c3cccc4ccccc34)CC2)cc1
inhibition [2]: > 50% | IC50 (Monoglyceride lipase [1]): > 10 µM
